# Assay results: PubChem BioAssay (NCI)
#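 The compound was tested at five concentrations on cells cultured in 96-well plates, with a 48-hour exposure period. At the TGI there is no net growth.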
# Experiments:
# Assay in all cases: growth of human tumour cells (NCI), 48 h
# SNB-19 CNS = tested on: SNB-19 CNS
# MCF7 breast = tested on: MCF7 breast
# SK-MEL-5 melanoma = tested on: SK-MEL-5 melanoma
# A549 NSCLC = tested on: A549 NSCLC
# CCRF-CEM leukemia = tested on: CCRF-CEM leukemia
# HT29 colon = tested on: HT29 colon
# SK-MEL-2 melanoma = tested on: SK-MEL-2 melanoma
# EKVX NSCLC = tested on: EKVX NSCLC
# SW-620 colon = tested on: SW-620 colon
# SF-295 CNS = tested on: SF-295 CNS
# OVCAR-3 ovarian = tested on: OVCAR-3 ovarian
# ACHN renal = tested on: ACHN renal
# OVCAR-5 ovarian = tested on: OVCAR-5 ovarian
# COLO 205 colon = tested on: COLO 205 colon
# HOP-92 NSCLC = tested on: HOP-92 NSCLC
# MDA-MB-435 = tested on: MDA-MB-435
# RXF 393 renal = tested on: RXF 393 renal
# K-562 leukemia = tested on: K-562 leukemia
# A498 renal = tested on: A498 renal
Structure (SMILES),TGI (SNB-19 CNS),TGI (MCF7 breast),TGI (SK-MEL-5 melanoma),TGI (A549 NSCLC),TGI (CCRF-CEM leukemia),TGI (HT29 colon),TGI (SK-MEL-2 melanoma),TGI (EKVX NSCLC),TGI (SW-620 colon),TGI (SF-295 CNS),TGI (OVCAR-3 ovarian),TGI (ACHN renal),TGI (OVCAR-5 ovarian),TGI (COLO 205 colon),TGI (HOP-92 NSCLC),TGI (MDA-MB-435),TGI (RXF 393 renal),TGI (K-562 leukemia),TGI (A498 renal)
COc1cc(C=Nc2ccc(Oc3ccc(Cl)cc3)c(Cl)c2)cc(OC)c1OC,49.1 µM,95.5 µM,34.9 µM,44.7 µM,66.4 µM,44 µM,45.9 µM,48.1 µM,> 100 µM,37.3 µM,48.4 µM,83.8 µM,> 100 µM,34 µM,39.4 µM,> 100 µM,–,–,–
COc1cc(/C=C/C(=O)C(C)(C)C)cc(OC)c1OC,> 100 µM,–,> 100 µM,> 100 µM,> 100 µM,> 100 µM,> 100 µM,> 100 µM,81.2 µM,> 100 µM,> 100 µM,> 100 µM,> 100 µM,> 100 µM,> 100 µM,–,79.1 µM,> 100 µM,–
O=[N+]([O-])c1ccc(-c2ccc(C3=Nn4c(nnc4-c4ccc(Cl)cc4)SC3)o2)cc1,> 76.8 µM,–,> 100 µM,> 100 µM,> 100 µM,> 100 µM,> 100 µM,> 100 µM,> 100 µM,> 82.1 µM,> 100 µM,> 100 µM,> 100 µM,> 100 µM,> 75.8 µM,–,–,> 100 µM,> 100 µM
Nc1nc(NC(=O)C2=NS(=O)(=O)c3cc(S(N)(=O)=O)c(Cl)cc3N2)n[nH]1,> 100 µM,–,> 100 µM,> 100 µM,> 100 µM,> 100 µM,–,> 100 µM,> 100 µM,> 100 µM,> 100 µM,> 100 µM,> 100 µM,> 100 µM,> 100 µM,–,> 100 µM,> 100 µM,> 100 µM
Cc1cn2cc(-c3ccncc3)nc2s1,> 100 µM,–,> 100 µM,> 100 µM,> 78.1 µM,> 100 µM,> 100 µM,> 100 µM,> 100 µM,> 100 µM,> 100 µM,> 100 µM,> 100 µM,> 100 µM,> 100 µM,–,–,> 100 µM,> 100 µM
CC(C)CCC[C@@H](C)[C@H]1CC[C@H]2[C@@H]3CC=C4CC(OCCCCN(O)CCCSC5OC(CO)C(O)C(O)C5O)CC[C@]4(C)[C@H]3CC[C@]12C (stereo partly drawn),> 100 µM,–,> 100 µM,> 100 µM,72 µM,> 100 µM,92.1 µM,> 100 µM,49.4 µM,> 100 µM,–,> 100 µM,> 100 µM,47.3 µM,> 100 µM,–,> 100 µM,> 100 µM,> 100 µM
O=C(CSCC(=O)N/N=C\c1cc(Br)cc(Br)c1O)N/N=C\c1cc(Br)cc(Br)c1O,> 100 µM,> 100 µM,92.2 µM,> 100 µM,–,> 100 µM,42.7 µM,> 100 µM,> 100 µM,> 100 µM,93.8 µM,31.4 µM,> 100 µM,> 100 µM,79 µM,> 100 µM,> 100 µM,80.1 µM,–
